Laboratory results from ChEMBL document CHEMBL2163273, “Orally active adenosine A(1) receptor agonists with antinociceptive effects in mice” (J Med Chem, 2012).
Calls of active or inactive are those of the source. No cut-off for these calls is given here.

What was measured:
Adenosine receptor A1 [1] = target: T1, Adenosine receptor A1 (Homo sapiens, UniProt P30542); assay: Agonist activity at human A1AR expressed in HEK293T/17 cells assessed as inhibition of isoproterenol-induced cAMP accumulation incubated for 10 mins by luciferase reporter assay; assay type: functional, cell-based, HEK-293T
T1 sequence (P30542 whole entry): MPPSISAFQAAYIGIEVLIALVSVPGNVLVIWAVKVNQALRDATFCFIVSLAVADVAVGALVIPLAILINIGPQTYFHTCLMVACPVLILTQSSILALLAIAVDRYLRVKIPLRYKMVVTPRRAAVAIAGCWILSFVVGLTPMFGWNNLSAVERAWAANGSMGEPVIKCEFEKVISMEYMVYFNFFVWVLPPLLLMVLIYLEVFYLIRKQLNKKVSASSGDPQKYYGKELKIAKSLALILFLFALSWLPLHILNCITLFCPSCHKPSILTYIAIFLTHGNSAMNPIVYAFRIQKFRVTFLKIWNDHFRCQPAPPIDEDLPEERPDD

Mus musculus [2] = assay: Cardiovascular toxicity in A1AR knock out C57BL/6 mouse assessed as change in heart rate at 5000 nmol/kg, po; assay type: organism-based; conditions: in vivo
Mus musculus [3] = assay: Cardiovascular toxicity in C57BL/6 mouse assessed as change in heart rate at 5000 nmol/kg, po; assay type: organism-based; conditions: in vivo
Mus musculus [4] = assay: Cardiovascular toxicity in C57BL/6 mouse assessed as change in body temperature at 5000 nmol/kg, po; assay type: organism-based; conditions: in vivo
Mus musculus [5] = assay: Cardiovascular toxicity in A1AR knock out C57BL/6 mouse assessed as change in body temperature at 5000 nmol/kg, po; assay type: organism-based; conditions: in vivo
Mus musculus [6] = assay: Antinociceptive effect in orally dosed C57BL/6 mouse assessed as inhibition of noxious thermal sensitivity by measuring paw withdrawal latency; assay type: functional, organism-based
[7] = target: T2, Adenosine receptor A2b (Homo sapiens) (UniProt P29275); assay: Displacement of [3H]2-chloro-N6-cyclopentyladenosine from human A2BR at 10 uM
T2 sequence (whole entry): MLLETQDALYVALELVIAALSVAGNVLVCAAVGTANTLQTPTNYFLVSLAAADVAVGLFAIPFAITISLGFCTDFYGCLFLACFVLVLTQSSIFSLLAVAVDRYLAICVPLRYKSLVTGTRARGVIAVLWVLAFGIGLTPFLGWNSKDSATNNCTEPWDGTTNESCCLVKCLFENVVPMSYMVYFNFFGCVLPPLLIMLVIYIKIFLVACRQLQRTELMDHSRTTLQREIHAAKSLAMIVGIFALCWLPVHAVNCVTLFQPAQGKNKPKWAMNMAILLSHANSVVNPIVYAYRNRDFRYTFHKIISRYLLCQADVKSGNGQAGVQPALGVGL

Adenosine receptor A2a = Adenosine receptor A2a (Homo sapiens, UniProt P29274); assay: Displacement of [3H]2-chloro-N6-cyclopentyladenosine from human A2AR
Adenosine receptor A3 = target: T3, Adenosine receptor A3 (Homo sapiens, UniProt P0DMS8); assay: Displacement of [3H]2-chloro-N6-cyclopentyladenosine from human A3AR
T3 sequence (P0DMS8 whole entry): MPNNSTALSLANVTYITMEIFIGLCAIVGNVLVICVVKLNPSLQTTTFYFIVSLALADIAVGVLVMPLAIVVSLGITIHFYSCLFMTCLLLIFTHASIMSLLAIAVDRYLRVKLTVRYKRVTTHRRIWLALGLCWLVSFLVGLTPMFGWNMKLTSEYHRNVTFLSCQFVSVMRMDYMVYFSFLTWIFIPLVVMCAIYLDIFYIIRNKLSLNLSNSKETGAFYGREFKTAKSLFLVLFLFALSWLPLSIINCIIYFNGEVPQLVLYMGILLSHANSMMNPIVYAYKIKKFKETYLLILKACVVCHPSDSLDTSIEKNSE

Adenosine receptor A1 [8] = target: T1, Adenosine receptor A1; assay: Displacement of [3H]2-chloro-N6-cyclopentyladenosine from human A1AR
Adenosine receptor A1 [9] = target: T1, Adenosine receptor A1; assay: Agonist activity at human A1AR assessed as induction of Ca2+ ion mobilization by orthogonal functional assay
Homo sapiens [10] = species: Homo sapiens; assay: Selectivity ratio of Ki for human A3AR to Ki for human A1AR
Adenosine receptor A1 [11] = target: T1, Adenosine receptor A1; assay: Agonist activity at human A1AR expressed in HEK293T/17 cells assessed as inhibition of forskolin-induced cAMP accumulation incubated for 10 mins by luciferase reporter assay; assay type: functional, cell-based, HEK-293T
Mus musculus [12] = assay: Antinociceptive effect in A1AR knock out C57BL/6 mouse assessed as inhibition of noxious thermal sensitivity by measuring paw withdrawal latency at 5 nmol/kg, it; assay type: functional, organism-based
[13] = target: T2, Adenosine receptor A2b (Homo sapiens); assay: Displacement of [3H]2-chloro-N6-cyclopentyladenosine from human A2BR at 50 uM
Mus musculus [14] = assay: Antinociceptive effect in intravenously dosed C57BL/6 mouse assessed as inhibition of noxious thermal sensitivity by measuring paw withdrawal latency; assay type: functional, organism-based
Homo sapiens [15] = species: Homo sapiens; assay: Selectivity ratio of Ki for human A2AR to Ki for human A1AR
Mus musculus [16] = assay: Antinociceptive effect in intrathecally dosed C57BL/6 mouse assessed as inhibition of noxious thermal sensitivity by measuring paw withdrawal latency; assay type: functional, organism-based

Sequence of Adenosine receptor A2a (P29274 whole entry): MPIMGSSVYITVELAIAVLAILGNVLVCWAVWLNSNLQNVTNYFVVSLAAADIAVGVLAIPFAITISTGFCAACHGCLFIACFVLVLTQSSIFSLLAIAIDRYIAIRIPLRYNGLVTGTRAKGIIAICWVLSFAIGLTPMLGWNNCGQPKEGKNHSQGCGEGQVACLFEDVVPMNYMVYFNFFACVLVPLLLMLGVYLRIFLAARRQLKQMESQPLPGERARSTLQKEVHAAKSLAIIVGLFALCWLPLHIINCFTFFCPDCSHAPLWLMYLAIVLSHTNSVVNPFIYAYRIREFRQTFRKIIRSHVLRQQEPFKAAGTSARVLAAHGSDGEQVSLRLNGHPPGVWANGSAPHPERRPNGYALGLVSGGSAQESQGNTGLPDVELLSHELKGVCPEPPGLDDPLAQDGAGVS

Compound `O=P(O)(O)OCC(Cc1ccccc1)Nc1nc(Cl)nc2c1ncn2[C@@H]1O[C@H](CO)[C@@H](O)[C@H]1O` (mixture of isomers) has an EC50 (Adenosine receptor A1 [1]) of 1500 nM.

`OC[C@H]1O[C@@H](n2cnc3c(NC4CCCC4)ncnc32)[C@H](O)[C@@H]1O` [N6-CYCLOPENTYLADENOSINE] was tested, and the Activity (Mus musculus [2]) was “Non-toxic”, the Activity (Mus musculus [3]) was “Toxic” and the Activity (Mus musculus [4]) was “Toxic”. For the same compound, the Activity (Mus musculus [5]) was “Non-toxic” and the Activity (Mus musculus [6]) was “Dose-dependent effect”.

`COP(=O)(OC)OCC(Cc1ccccc1)Nc1nc(Cl)nc2c1ncn2[C@@H]1O[C@H](CO)[C@@H](O)[C@H]1O` (mixture of isomers) gave an EC50 (Adenosine receptor A1 [1]) of 5400 nM.

`O=P(O)(O)OC[C@H]1O[C@@H](n2cnc3c(NC4CCCC4)nc(Cl)nc32)[C@H](O)[C@@H]1O` showed an inhibition [7] of 0%, a Ki (Adenosine receptor A2a) of 1600 nM and a Ki (Adenosine receptor A3) of 1300 nM. The EC50 (Adenosine receptor A1 [1]) was 72 nM, the Ki (Adenosine receptor A1 [8]) was 25 nM and the EC50 (Adenosine receptor A1 [9]) was 21 nM. It also gave a Ratio Ki (Homo sapiens [10]) of 52.

With `COP(=O)(OC)OC[C@H]1O[C@@H](n2cnc3c(NC4CCCC4)ncnc32)[C@H](O)[C@@H]1O` the EC50 (Adenosine receptor A1 [1]) was 4400 nM.

Work on `O=P(O)(O)O[C@@H]1CCC[C@H]1Nc1nc(Cl)nc2c1ncn2[C@@H]1O[C@H](CO)[C@@H](O)[C@H]1O` yielded an EC50 (Adenosine receptor A1 [11]) of 120 nM.

Work on `OCC(Cc1ccccc1)Nc1nc(Cl)nc2c1ncn2[C@@H]1O[C@H](CO)[C@@H](O)[C@H]1O` (mixture of isomers) yielded an EC50 (Adenosine receptor A1 [1]) of 550 nM.

With `OC[C@H]1O[C@@H](n2cnc3c(N[C@H]4CCC[C@@H]4O)ncnc32)[C@H](O)[C@@H]1O` [GR-79236] the EC50 (Adenosine receptor A1 [11]) was 5.9 nM.

With `CCOC(=O)CNP(=O)(NCC(=O)OCC)OC[C@H]1O[C@@H](n2cnc3c(NC4CCCC4)nc(Cl)nc32)[C@H](O)[C@@H]1O` the EC50 (Adenosine receptor A1 [1]) was 530 nM.

Compound `CCOP(=O)(OCC)OC[C@H]1O[C@@H](n2cnc3c(NC4CCCC4)nc(Cl)nc32)[C@H](O)[C@@H]1O` has an EC50 (Adenosine receptor A1 [1]) of over 10000 nM.

For `Nc1ncnc2c1ncn2[C@@H]1O[C@H](CO)[C@@H](OP(=O)(O)O)[C@H]1O`, the EC50 (Adenosine receptor A1 [1]) was 440 nM.

`Nc1ncnc2c1ncn2[C@@H]1O[C@H](CO)[C@@H](O)[C@H]1OP(=O)(O)O` gave an EC50 (Adenosine receptor A1 [1]) of 490 nM.

`COP(=O)(OC)OC[C@H]1O[C@@H](n2cnc3c(NC4CCCC4)nc(Cl)nc32)[C@H](O)[C@@H]1O` was tested, and the Activity (Mus musculus [2]) was “Non-toxic”, the Activity (Mus musculus [12]) was “inactive” and the Activity (Mus musculus [3]) was “Non-toxic”. For the same compound, the Ki (Adenosine receptor A2a) was 4700 nM, the Ki (Adenosine receptor A3) was 450 nM and the inhibition [13] was 7%. For the same compound, the EC50 (Adenosine receptor A1 [1]) was 1400 nM, the Activity (Mus musculus [14]) was “Dose-dependent effect” and the Ratio Ki (Homo sapiens [15]) was 130. The Ki (Adenosine receptor A1 [8]) was 36 nM, the EC50 (Adenosine receptor A1 [9]) was 520 nM and the Ratio Ki (Homo sapiens [10]) was 12. For the same compound, the Activity (Mus musculus [4]) was “Non-toxic”, the Activity (Mus musculus [5]) was “Non-toxic” and the Activity (Mus musculus [6]) was “Dose-dependent effect”. The Activity (Mus musculus [16]) was “Dose-dependent effect”.

Compound `O=P(O)(O)OC[C@H]1O[C@@H](n2cnc3c(NC4CCCC4)ncnc32)[C@H](O)[C@@H]1O` has an EC50 (Adenosine receptor A1 [1]) of 100 nM.

Work on `O=P(OCCc1ccccc1)(OCCc1ccccc1)OC[C@H]1O[C@@H](n2cnc3c(NC4CCCC4)nc(Cl)nc32)[C@H](O)[C@@H]1O` yielded an EC50 (Adenosine receptor A1 [1]) of 6100 nM.

`Nc1ncnc2c1ncn2[C@@H]1O[C@H](COP(=O)(O)O)[C@@H](O)[C@H]1O` [ADENOSINE PHOSPHATE] showed an EC50 (Adenosine receptor A1 [1]) of 500 nM.

For `COP(=O)(OC)O[C@@H]1CCC[C@H]1Nc1nc(Cl)nc2c1ncn2[C@@H]1O[C@H](CO)[C@@H](O)[C@H]1O`, the EC50 (Adenosine receptor A1 [11]) was over 10000 nM.
